Source: patent US5422118A, “Transdermal administration of amines with minimal irritation and high transdermal flux rate” (priority 1992, dated 1995)
Where a name gives a salt, the structure may show the parent alone. Read-outs that look alike come from different tables or passages of the source. Blank lines part the entries; values can stand above or below the compound they belong to.

Tests used:
human forearm skin [1] = assay: Procedure B primary irritation study in humans (Finn Chambers, 24 hours, 0-4 erythema score)
Excerpt: Procedure B Primary Irritation Study in Human- Alternative Method Finn Chambers (Epitest, Ltd OY, Tuusula, Finland) for epicutaneous testing of irritation on Scanpor adhesive (Norgesplaster A/S, Norway; 10 chambers) were used to test the primary irritancy of the test compound or composition. The formulations were introduced into the Finn Chambers using the following procedures. The adhesive covering was removed and the filter paper dots were placed into the chambers to be used. A disposable pasteur pipette was used to add one drop of formulation onto the filter paper. The pipette was then discarded. This was repeated for each formulation, up to 10 formulations. The subjects' forearm was lowered onto the scanpor adhesive and pressure was applied to insure adhesion. Two strips of 2" paper tape were overlapped over the scanpor adhesive. This remained in place for 24 hours, at which time it was removed and scored immediately using the table below. […]
Procedure B was used to evaluate the irritancy of physiologically active amines with or without complexation or solvation as described in more detail below.

skin [2] = test system: skin
human forearm skin [3] = details: in vivo
Experimental: Patches of the saturated film 2 cm^2 in area were placed by test subjects on their own forearm skin and held in place by clear, nonocclusive adhesive (Tegaderm), allowing constant observation of the skin under the patch. After 17 hours, skin damage was evaluated by visual observation. The damage was ranked using the following scale: 1 (no discoloration, no erythema); 2 (pink coloration, slight erythema); 3 (reddening, moderate erythema, no burning); 4 (reddening and burning, moderate erythema); 5 (erythema and edema, with or without burning); 6 (severe erythema, edema, and burning); and 7 (severe erythema, severe burning, blistering, and edema).
A physiologically active amine in the free base form can be evaluated for skin irritancy by Procedures A, B, or C, set out above. Alternatively, irritation can be determined by other conventional patch test involving maintaining the amine in contact with the skin for 24 hours, and then observing the skin. The results are evaluated using the scales provided for Procedures A, B, or C as defined herein.

skin [4] = details: oral form; Physician's Desk Reference; cited from earlier work
[5] = Transdermal flux rate through human skin in vitro (flow-through diffusion cell)
Excerpt: A surgically-removed human skin source was used for all in vitro diffusion cell tests. […] Briefly, the full-thickness skin was immersed in distilled water heated to 60±1 degrees C for 45 seconds. The epidermal-stratum corneum layers were then peeled from the dermis. The epidermis-stratum corneum layers were then excised with a cork borer into circular disks 1.4 cm in diameter.
The skin was then mounted onto a Teflon flow-through diffusion cell. […] The skin sample of the donor portion of the diffusion cell was secured in place into the receptor cell. The flow-through cell consisted of a Teflon receptor cell with an exposed skin surface area of 0.32 cm^2 and a receptor cell volume of 0.13 mi. Sink conditions were maintained by pumping phosphate-buffered saline under the skin in the receptor cell at about 3 ml/hr. Thus, the receptor volume was replaced about 23 times per hour. These cells were then mounted on a water-jacketedbracket which maintained the receptor solution in the cells at 33 degrees C. The receptor media which was pumped under the cells was degassed in order to reduce air bubble formation under the skin. […]
Liquid scintillation fluor was added directly to the sample vials so that they could be measured with minimal liquid transfers and handling. The sample vials were then analyzed with appropriate quench correction techniques by liquid scintillation spectroscopy. […]

[6] = cited from earlier work
[7] = Experimental: Given this information and the empirically determined transdermal flux rate of the material, the required patch size in centimeters^2 for effective dosing can be determined. […] The estimated patch size is determined by dividing the calculated therapeutically effective dose rate by the in vitro transdermal flux rate.
The estimated patch size for such a composition can be calculated as described in detail above. […] Since water soluble salt forms of physiologically active amines are not at all soluble in nonpolar, nonvolatile solvents, these solvents cannot be used to increase their transdermal flux rate.
The transdermal patch sizes required to deliver an effective dosage of a selected group of physiologically active amines were evaluated as described above. […] DEET, however, is not an appropriate solvent for extended transdermal drug delivery because it is not a United States Pharmacopeia accepted ingredient.

rabbit back skin = assay: Procedure C primary skin irritation tests in animals; details: 24 hour exposure, scored 24 and 72 hours
Experimental: Procedure C Primary Skin Irritation Tests in Animals Tests were performed on young adult albino rabbits (New Zealand White rabbits). Six rabbits were used for each test. The rabbits were prepared for the test by clipping the hair from the backs of the rabbits and any rabbit showing skin damage from the clipping was rejected from the testing. The application sites for the transdermal drug delivery (TDD) patch was intact skin. As an example, a formulation containing the test composition was incorporated into Poroplastic® transdermal patches. One TDD patch containing the test material was applied to one side of the rabbit's back. […] A one (1) inch square gauze patch, two single layers thick, was used to cover the test TDD patch. The animals were immobilized with patches secured in place by adhesive tape. The entire trunk of the animal was then wrapped with an impervious material for the twenty-four (24) hour exposure period. After 24 hours of exposure the patches were removed and the resulting reactions evaluated on the basis of the scoring system indicated below. Observations were again made at the end of a total of 72 hours (48 hours after the first reading). […]
After 24 hours of exposure the patches were removed and the resulting reactions evaluated on the basis of scores as described above.

skin [8] = details: WO 86/00806; cited from earlier work
skin [9] = details: WO 86/00806; cited from earlier work; remark: listed apart in the source
[10] = Procedure B, human forearm, 24 hours, score 0-4

Compound: CCCCCCCC/C=C\CCCCCCCC(=O)OC(C)C [isopropyl oleate]
- Erythema Rating (human forearm skin [1]; [10]): 0

Compound: OCCOCCN1CCN(C(c2ccccc2)c2ccc(Cl)cc2)CC1 (stereo not drawn) [hydroxyzine]
- irritation rating (human forearm skin [1]; in vivo): ≤ 2

Compound: CCCCCCCC/C=C\CCCCCCCC(=O)OCCC [propyl oleate]
- Erythema Rating (human forearm skin [1]; [10]): 0

Compound: CN(C)CCC(c1ccc(Cl)cc1)c1ccccn1 (stereo not drawn) [chlorpheniramine maleate]
- skin irritation (in words) (skin [2]; procedure not specified): minimally irritating
- Irritation Rating (1-7) (human forearm skin [3]): 1.0
- Erythema Rating (human forearm skin [1]; Procedure B, human forearm, 24 hours, score 0-4, listed as Chlorpheniramine maleate (1:1 molar ratio)): 0.0

Compound: CN(C)CCC(c1ccc(Cl)cc1)c1ccccn1 (stereo not drawn) [Chlorpheniramine Salicylate (1:1 M), Chlorpheniramine Salicylate]
- Irritation Rating (1-7) (human forearm skin [3]): 1.0
- Erythema Rating (human forearm skin [1]; Procedure B, human forearm, 24 hours, score 0-4, listed as Chlorpheniramine salicylate (1:1 molar ratio)): 0.0

Compound: CN(C)CCC(c1ccc(Br)cc1)c1ccccn1 (stereo not drawn) [brompheniramine maleate]
- skin irritation (in words) (skin [2]; in vivo): minimally irritating

Compound: CCCCC/C=C\C/C=C\CCCCCCCC(=O)O [Linoleic acid]
- Erythema Rating (human forearm skin [1]; [10]): 0

Compound: COc1ccc(CCN(C)CCCC(C#N)(c2ccc(OC)c(OC)c2)C(C)C)cc1OC (stereo not drawn) [oral form of Varapamil, Varapamil]
- adverse skin reactions (in words) (skin [4]): arthralgia and rash, exanthema, hair loss, hyperkeratosis, macules, StevenJohnsons syndrome, and erythema multiforme

Compound: CN(C)CCOC(c1ccccc1)c1ccccc1 [diphenhydramine hydrochloride]
- transdermal flux / skin penetration (in words) ([5]; human skin): do not permeate the skin with a therapeutically effective flux rate

Compound: CCCCCCCCCCCCCC(=O)OC(C)C [isopropyl myristate]
- Erythema Rating (human forearm skin [1]; in vivo): 0.3

- cal dose rate [7]: 98 µg/h
Compound: CN(C)CC[C@@H](c1ccc(Br)cc1)c1ccccn1 [dexbrompheniramine]
- effective blood concentration ([6]; in vivo): 5.3 ng/mL

Compound: CCCCCCCCCCCCCCCCCC(=O)OCCCC [butyl stearate]
- Erythema Rating (human forearm skin [1]; in vivo): 0

Compound: CCCCCCCC/C=C\CCCCCCCC(=O)O [Oleic acid]
- Erythema Rating (human forearm skin [1]; in vivo): 0

- Transdermal flux rate ([5]; Table 2, applicant's compositions): 55.8 μg/cm2/hr
Compound: CN(C)CCOC(c1ccccc1)c1ccccc1 [diphenhydramine]

Compound: C=CCCCCCCCCC(=O)O [Undecylenic acid]
- Erythema Rating (human forearm skin [1]; in vivo): 0

- estimated flux needed to achieve therapeutic blood levels [7]: 90 µg/h
Compound: CN(C)CCC(c1ccc(Cl)cc1)c1ccccn1 (stereo not drawn) [chlorpheniramine]
- Erythema Rating (human forearm skin [1]; [10]): 4.0

Compound: CN1CCCC1c1cccnc1 (stereo not drawn) [nicotine]
- Clearance ([6]; Table 2): 1200 mL/min
- effective blood concentration ([6]; Table 2): 13 ng/mL
- cal dose rate ([7]; Table 2, clearance times effective blood level): 936 µg/h
- primary irritation score (rabbit back skin): less than 2

Compound: CN1CCC(=C2c3ccccc3CCc3cccnc32)CC1 [azatadine]
- dermal irritation or sensitization (in words) (skin [8]): no dermal irritation or sensitization
- dermal penetration (in words) (skin [9]): good dermal penetration
